{
  "source": "patent US20110236318A1",
  "about": "“ANIMAL MODEL OF AN EJACULATION-LIKE REFLEX” (ASTELLAS PHARMA INC., priority 2010, published 2011)",
  "key": {"ejaculation-like reflex": {"system": "ejaculation-like reflex", "test": "Ejaculation-like reflex induced by urethral occlusion by a bend at the penile base", "format": "in vivo, rat", "conditions": "anesthetized spinal cord-transected male SD rats; 1.0 mg/kg iv; occlusion 10 minutes after dosing; vs pre values; N=3", "description": "Male SD rats of 300-450 g body weight (Charles River) were used under urethane anesthesia (1.2 g/kg, s.c., ACROS Organic). The skin and muscle on the back were incised to expose the 7th-9th thoracic vertebra. The vertebra on the back side was removed to expose the spinal cord, which was cut at the 8th-10th thoracic vertebra. Gelfoam (Pfizer) was imbedded in the cut site and the muscle and skin were sutured.\nThe neck skin and muscle were incised, and catheters (Intramedic polyethylene tube No. 50; Becton Dickinson) were inserted into the carotid and jugular vein for measuring the blood pressure and administering a drug, respectively. The other end of the carotid catheter was connected to a pressure transducer (CDXIII Transducer, Argon Medical Devices).\nThe lower abdominal region was subjected to median incision to expose the bladder. […] The pressure transducers connecting to the catheter inserted into the carotid […] and the catheter inserted into the proximal urethra were connected to a distortion pressure amplifier (Transbridge 4M, World Precision Instruments) installed in a polygraph system (RPS321RM, GRASS Technologies), and the blood pressure and urethral pressure were measured by a Power Labosystem (ML880 and LabChart version 6, AD Instruments) with a lapse of time. […]"}, "ejaculatory latency": {"system": "ejaculatory latency", "conditions": "male rat copulatory behavior study, reported previously; cited from earlier work"}},
  "data": [
    {"smiles": "CCCN(CCC)C1CCc2cccc(O)c2C1", "note": "(stereo not drawn) [8-OH-DPAT]", "values": [
      {"measurement": "latency from the start of occlusion until the first ejaculation-like reflex", "setting": "ejaculation-like reflex", "result": "shortened the latency of the first ejaculation-like reflex"},
      {"measurement": "threshold urethra pressure immediately before the first ejaculation-like reflex", "setting": "ejaculation-like reflex", "result": "reduced the threshold urethra pressure"},
      {"measurement": "ejaculatory latency", "setting": "ejaculatory latency", "result": "shorten the ejaculatory latency"}
    ]}
  ]
}
